Test results: US9738655B2, “Tetrahydroisoquinolines containing substituted azoles as factor XIa inhibitors” (BRISTOL-MYERS SQUIBB COMPANY, priority 2013, dated 2017)
Structures can show the parent of a compound that is named as a salt. Where two headings read alike, the source gives them in different places.

Assays:
[1] = molecular target: purified human plasma kallikrein (Homo sapiens (Human), UniProt P03952); assay: Plasma kallikrein enzyme inhibition assay (chromogenic substrate S-2302); format: biochemical
[2] = molecular target: purified human Factor XIa (Homo sapiens (Human), UniProt P03951); assay: Factor XIa enzyme inhibition assay (chromogenic substrate S-2366)
Description: The effectiveness of compounds of the present invention as inhibitors of the coagulation Factors XIa, VIIa, IXa, Xa, XIIa, plasma kallikrein or thrombin, can be determined using a relevant purified serine protease, respectively, and an appropriate synthetic substrate. The rate of hydrolysis of the chromogenic or fluorogenic substrate by the relevant serine protease was measured both in the absence and presence of compounds of the present invention. […] A decrease in the rate of absorbance or fluorescence change in the presence of inhibitor is indicative of enzyme inhibition. […] The results of this assay are expressed as the inhibitory constant, Ki.
Values of Ki were determined by allowing the protease to react with the substrate in the presence of the inhibitor.

[3] = measured at 25° C. (no asterisk)
[4] = read-out: Factor XIa Ki, measured at 25° C.
[5] = measured at 25° C. (no asterisk), TFA salt
[6] = read-out: Factor XIa Ki, measured at 25° C., TFA salt

Chain of purified human Factor XIa (P03951 388-625): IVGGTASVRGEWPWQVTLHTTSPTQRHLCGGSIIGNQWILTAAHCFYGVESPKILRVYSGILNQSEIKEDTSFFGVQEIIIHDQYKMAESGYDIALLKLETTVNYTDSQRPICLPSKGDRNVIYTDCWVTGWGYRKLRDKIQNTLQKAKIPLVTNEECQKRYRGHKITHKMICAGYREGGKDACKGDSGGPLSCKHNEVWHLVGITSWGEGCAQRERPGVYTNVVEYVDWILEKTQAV
Chain of purified human Factor XIa (P03951 19-387 partner): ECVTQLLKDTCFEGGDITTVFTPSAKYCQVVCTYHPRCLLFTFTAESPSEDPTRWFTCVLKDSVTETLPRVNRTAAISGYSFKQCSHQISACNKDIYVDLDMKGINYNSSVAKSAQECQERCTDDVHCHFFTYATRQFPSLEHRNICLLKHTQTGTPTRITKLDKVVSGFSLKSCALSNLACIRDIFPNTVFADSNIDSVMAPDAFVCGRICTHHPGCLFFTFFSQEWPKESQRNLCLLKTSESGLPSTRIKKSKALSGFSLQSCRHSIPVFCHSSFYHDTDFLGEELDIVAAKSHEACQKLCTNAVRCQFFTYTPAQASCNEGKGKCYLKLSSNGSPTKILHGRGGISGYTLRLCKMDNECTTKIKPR
Chain of purified human plasma kallikrein (P03952 391-638): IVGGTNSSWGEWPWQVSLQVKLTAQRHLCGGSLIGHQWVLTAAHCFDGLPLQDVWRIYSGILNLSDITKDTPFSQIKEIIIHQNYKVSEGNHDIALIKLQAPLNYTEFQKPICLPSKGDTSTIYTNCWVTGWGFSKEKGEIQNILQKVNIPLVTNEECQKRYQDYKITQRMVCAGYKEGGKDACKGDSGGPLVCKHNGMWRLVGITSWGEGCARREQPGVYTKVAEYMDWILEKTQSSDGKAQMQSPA
Chain of purified human plasma kallikrein (P03952 20-390 partner): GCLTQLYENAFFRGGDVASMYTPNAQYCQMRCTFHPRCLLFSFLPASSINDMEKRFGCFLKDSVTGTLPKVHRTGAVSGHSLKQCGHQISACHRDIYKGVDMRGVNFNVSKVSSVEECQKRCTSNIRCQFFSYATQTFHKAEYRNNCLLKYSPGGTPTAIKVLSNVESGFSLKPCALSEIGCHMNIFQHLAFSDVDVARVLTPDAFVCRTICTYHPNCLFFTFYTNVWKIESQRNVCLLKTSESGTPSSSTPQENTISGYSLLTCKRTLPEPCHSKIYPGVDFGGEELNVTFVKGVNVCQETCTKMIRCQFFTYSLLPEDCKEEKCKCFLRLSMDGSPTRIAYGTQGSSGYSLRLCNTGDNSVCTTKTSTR

SMILES	Ki [1, 3] [nM]	Ki [2, 4] [nM]	Ki ([1]; measured at 37° C. (*)) [nM]	other results
CN(C)CCNC(=O)c1ccc(-c2cccc3c2CCN(C(=O)c2cn(-c4cccc(Cl)c4F)nn2)[C@@H]3C(=O)Nc2ccc(C(=O)O)cc2)cc1 [Example 10, (S)-4-(2-(1-(3-Chloro-2-fluorophenyl)-1H-1,2,3-triazole-4-carbonyl)-5-(4-((2-(dimethylamino)ethyl)carbamoyl)phenyl)-1,2,3,4-tetrahydroisoquinoline-1-carboxamido)benzoic acid, TFA salt]	1.08	< 5	–	–
COC1CCN(c2cccc3c2CCN(C(=O)C2CC(c4c(F)ccc(Cl)c4F)=NO2)C3C(=O)Nc2ccc(C(=O)O)cc2)CC1 (centres unmarked) [Example 257, 4-(2-(3-(3-chloro-2,6-difluorophenyl)-4,5-dihydroisoxazole-5-carbonyl)-5-(4-methoxypiperidin-1-yl)-1,2,3,4-tetrahydroisoquinoline-1-carboxamido)benzoic acid, TFA salt]	–	–	–	Ki [1, 5]: 24 nM; Ki [2, 6]: < 5 nM
CN1CCN(c2cccc3c2CCN(C(=O)c2cnn(-c4cccc(Cl)c4)c2)C3C(=O)Nc2ccc(C(=O)O)cc2)CC1 (centres unmarked) [Example 200, 4-(2-(1-(3-chlorophenyl)-1H-pyrazole-4-carbonyl)-5-(4-methylpiperazin-1-yl)-1,2,3,4-tetrahydroisoquinoline-1-carboxamido)benzoic acid, 2 TFA salt]	10.7	41.7	–	–
O=C(Nc1ccc(-c2ncc[nH]2)cc1)C1c2cccc(-c3cncnc3)c2CCN1C(=O)c1cn(-c2cccc(Cl)c2F)nn1 (centres unmarked) [Example 126, N-(4-(1H-imidazol-2-yl)phenyl)-2-(1-(3-chloro-2-fluorophenyl)-1H-1,2,3-triazole-4-carbonyl)-5-(pyrimidin-5-yl)-1,2,3,4-tetrahy-droisoquinoline-1-carboxamide, TFA salt]	–	< 5	94	–
COC1CCN(c2cccc3c2CCN(C(=O)c2cnc(-c4cccc(Cl)c4F)s2)C3C(=O)Nc2ccc(C(=O)O)cc2)CC1 (racemic) [Example 270, 4-(2-(2-(3-chloro-2-fluorophenyl)thiazole-5-carbonyl)-5-(4-methoxypiperidin-1-yl)-1,2,3,4-tetrahydroisoquinoline-1-carboxamido)benzoic acid, TFA salt]	269	–	–	Ki [2]: 20.4 nM
COC1CCN(c2cccc3c2CCN(C(=O)c2cn(-c4cccc(Cl)c4F)nc2O)C3C(=O)Nc2ccc(C(=O)O)cc2)CC1 (racemic) [Example 264, 4-(2-(1-(3-chloro-2-fluorophenyl)-3-hydroxy-1H-pyrazole-4-carbonyl)-5-(4-methoxypiperidin-1-yl)-1,2,3,4-tetrahydroisoquinoline-1-carboxamido)benzoic acid, TFA salt]	11.1	–	–	Ki [2]: < 5 nM
CN1CCN(c2cccc3c2CCN(C(=O)c2cn(-c4cccc(Cl)c4F)nn2)[C@@H]3C(=O)Nc2ccc(C(=O)O)cc2)CC1=O [Example 287, (S)-4-(2-(1-(3-chloro-2-fluorophenyl)-1H-1,2,3-triazole-4-carbonyl)-5-(4-methyl-3-oxopiperizin-1-yl)-1,2,3,4-tetrahydroisoquinoline-1-carboxamido)benzoic acid, TFA salt]	1.82	< 5	–	–
COC1CCN(c2cccc3c2CCN(C(=O)C2CCN(c4cccc(Cl)c4F)C2)C3C(=O)Nc2ccc(C(=O)O)cc2)CC1 (centres unmarked) [Example 308, 4-(2-(1-(3-Chloro-2-fluorophenyl)pyrrolidine-3-carbonyl)-5-(4-methoxypiperidin-1-yl)-1,2,3,4-tetrahydroisoquinoline-1-carboxamido)benzoic acid, TFA salt]	–	–	–	Ki [1, 5]: 79.7 nM; Ki [2, 6]: 6.03 nM
CN(C)C1CCN(c2cccc3c2CCN(C(=O)c2cn(-c4cccc(Cl)c4F)cn2)C3C(=O)Nc2ccc(C(=O)O)cc2)CC1 (centres unmarked) [Example 53, 4-(2-(1-(3-chloro-2-fluorophenyl)-1H-imidazole-4-carbonyl)-5-(4-(dimethylamino)piperidin-1-yl)-1,2,3,4-tetrahydroisoquinoline-1-carboxamido)benzoic acid, bis-TFA salt]	1.21	< 5	–	–
COC1CCN(c2cccc3c2CCN(C(=O)c2cc(-c4cccc(Cl)c4F)no2)C3C(=O)Nc2ccc(C(=O)O)cc2)CC1 (racemic) [Example 268, 4-(2-(3-(3-chloro-2-fluorophenyl)isoxazole-5-carbonyl)-5-(4-methoxypiperidin-1-yl)-1,2,3,4-tetrahydroisoquinoline-1-carboxamido)benzoic acid, TFA salt]	–	–	178	Ki [2]: 1430 nM
COC(=O)c1ccc(NC(=O)[C@H]2c3cccc(N4CCN(C5COC5)CC4)c3CCN2C(=O)[C@H]2CC(c3cccc(Cl)c3F)=NO2)cc1 [Example 233, Methyl 4-((R)-2-((R)-3-(3-chloro-2-fluorophenyl)-4,5-dihydroisoxazole-5-carbonyl)-5-(4-(oxetan-3-yl)piperazin-1-yl)-1,2,3,4-tetrahydroisoquinoline-1-carboxamido)benzoate, 2 TFA salt]	–	5.45	> 13000	–
COC1CCN(c2cccc3c2CCN(C(=O)C2CC(c4c(C(F)(F)F)ccc(Cl)c4F)=NO2)C3C(=O)Nc2ccc(C(=O)O)cc2)CC1 (centres unmarked) [Example 298, 4-(2-(3-(3-chloro-2-fluoro-6-(trifluoromethyl)phenyl)-4,5-dihydroisoxazole-5-carbonyl)-5-(4-methoxypiperidin-1-yl)-1,2,3,4-tetrahydroisoquinoline-1-carboxamido)benzoic acid, TFA salt]	–	–	–	Ki [1, 5]: 1010 nM; Ki [2, 6]: 64.8 nM
COC1CCN(c2cccc3c2CCN(C(=O)c2cnn(-c4ccncc4)c2N)C3C(=O)Nc2ccc(C(=O)O)cc2)CC1 (racemic) [Example 313, 4-(2-(5-amino-1-(pyridin-4-yl)-1H-pyrazole-4-carbonyl)-5-(4-methoxypiperidin-1-yl)-1,2,3,4-tetrahydroisoquinoline-1-carboxamido)benzoic acid, TFA salt]	–	–	> 6000	Ki [2]: 4820 nM
O=C(O)c1ccc(NC(=O)C2c3cccc(N4CCC(N5CCCC5)CC4)c3CCN2C(=O)C2CC(c3cccc(Cl)c3)=NO2)cc1 (single isomer, unassigned) [Example 204, 4-(2-(3-(3-chlorophenyl)-4,5-dihydroisoxazole-5-carbonyl)-5-(4-(pyrrolidin-1-yl)piperidin-1-yl)-1,2,3,4-tetrahydroisoquinoline-1-carboxamido)benzoic acid, 2 TFA salt]	11	< 5	–	–
COC1CCN(c2cccc3c2CCN(C(=O)c2cnn(-c4ccc5nonc5c4)c2)C3C(=O)Nc2ccc(C(=O)O)cc2)CC1 (centres unmarked) [Example 331, 4-(2-(1-(benzo[c][1,2,5]oxadiazol-5-yl)-1H-pyrazole-4-carbonyl)-5-(4-methoxypiperidin-1-yl)-1,2,3,4-tetrahydroisoquinoline-1-carboxamido)benzoic acid]	–	7050	> 6000	–
O=C(Nc1ccc(-c2cc[nH]n2)cc1)C1c2cccc(-c3cncnc3)c2CCN1C(=O)c1cn(-c2cccc(Cl)c2F)nn1 (centres unmarked) [Example 127, N-(4-(1H-pyrazol-3-yl)phenyl)-2-(1-(3-chloro-2-fluorophenyl)-1H-1,2,3-triazole-4-carbonyl)-5-(pyrimidin-5-yl)-1,2,3,4-tetrahydroisoquinoline-1-carboxamide, TFA salt]	–	< 5	196	–
O=C(O)c1ccc(NC(=O)[C@@H]2c3cccc(N4CCOCC4)c3CCN2C(=O)c2cn(-c3cccc(Cl)c3F)nn2)cc1 [Example 90, (S)-4-(2-(1-(3-Chloro-2-fluorophenyl)-1H-1,2,3-triazole-4-carbonyl)-5-morpholino-1,2,3,4-tetrahydroisoquinoline-1-carboxamido)benzoic acid, TFA salt]	5.37	< 5	–	–
COC1CCN(c2cccc3c2CCN(C(=O)[C@H]2CC(c4cccc(Cl)c4F)=NO2)[C@H]3C(=O)Nc2cccc(F)c2)CC1 (single isomer, unassigned) [Example 238, TFA salt]	–	–	> 4340	Ki [2]: 635 nM
COC1CCN(c2cccc3c2CCN(C(=O)C2CC(c4c(C(F)(F)F)ccc(Cl)c4F)=NO2)C3C(=O)Nc2ccc(C(=O)O)cc2)CC1 (centres unmarked) [Example 297, 4-(2-(3-(3-chloro-2-fluoro-6-(trifluoromethyl)phenyl)-4,5-dihydroisoxazole-5-carbonyl)-5-(4-methoxypiperidin-1-yl)-1,2,3,4-tetrahydroisoquinoline-1-carboxamido)benzoic acid, TFA salt]	–	–	–	Ki [1, 5]: 1280 nM; Ki [2, 6]: 46.3 nM
O=C(O)c1ccc2cc(NC(=O)C3c4cccc(-c5cncnc5)c4CCN3C(=O)c3cn(-c4cccc(Cl)c4F)nn3)ccc2n1 (centres unmarked) [Example 129, 6-(2-(1-(3-chloro-2-fluorophenyl)-1H-1,2,3-triazole-4-carbonyl)-5-(pyrimidin-5-yl)-1,2,3,4-tetrahydroisoquinoline-1-carboxamido) quinoline-2-carboxylic acid, TFA salt]	–	< 5	34	–
O=C(NC12CCC(C(=O)O)(CC1)CC2)[C@H]1c2cccc(-c3cncnc3)c2CCN1C(=O)c1cn(-c2cccc(Cl)c2F)nn1 (single isomer, unassigned; enantiomer b) [Example 145, 4-(2-{[1-(3-Chloro-2-fluorophenyl)-1H-1,2,3-triazol-4-yl]carbonyl}-5-(pyrimidin-5-yl)-1,2,3,4-tetrahydroisoquinoline-1-amido)bicyclo[2.2.2]octane-1-carboxylic acid, 1 TFA (enantiomer B)]	–	7.87	252	–
COC1CCN(c2cccc3c2CCN(C(=O)c2cnn(-c4cccc(Cl)c4)c2C(F)(F)F)C3C(=O)Nc2ccc(C(=O)O)cc2)CC1 (centres unmarked) [Example 150, 4-(2-(1-(3-chlorophenyl)-5-(trifluoromethyl)-1H-pyrazole-4-carbonyl)-5-(4-methoxypiperidin-1-yl)-1,2,3,4-tetrahydroisoquinoline-1-carboxamido)benzoic acid, TFA salt]	–	2600	> 6000	–
